Laboratory results reported in PubChem BioAssay AID1259407 (Chemical Carcinogenesis Research Information System (CCRIS), 2018).
Calls of active or inactive are those of the source. The rule behind the calls is not given here.

Tested on: CCRIS mutagenicity, Ames/micronucleus/aberration tests
Assay: CCRIS mutagenicity studies
Conditions: Test System: AMES SALMONELLA TYPHIMURIUM; Strain/Indicator: TA100; Metabolic Activation: NONE; Method: STANDARD PLATE

ClCc1ccc(Br)cc1
mutagenic call: inactive; negative
